Measurements reported in the supplement of paper PMC13207355.

Experiments:
Settings in all cases: exposure time: 72 h
E13 [1] = patient-derived glioblastoma stem cells of classical subtype; experiment: surviving fraction (nuclei count normalised to DMSO); higher = more cells surviving (less toxic)
E21 [2] = patient-derived glioblastoma stem cells of mesenchymal subtype; experiment: as above
E28 [3] = patient-derived glioblastoma stem cells of classical subtype; experiment: as above
E31 [4] = patient-derived glioblastoma stem cells of proneural subtype; experiment: as above
E34 [5] = patient-derived glioblastoma stem cells of proneural subtype; experiment: as above
E57 [6] = patient-derived glioblastoma stem cells of mesenchymal subtype; experiment: as above
FT3469 [7] = normal neural stem cell line; experiment: as above
E13 [8] = experiment: phenotypic distance (Euclidean, principal components) from DMSO controls (arbitrary units); higher = stronger morphological change
E21 [9] = experiment: as above
E28 [10] = experiment: as above
E31 [11] = experiment: as above
E34 [12] = experiment: as above
E57 [13] = experiment: as above
FT3469 [14] = experiment: as above
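Wherever phenotypic distance (Euclidean, principal components) from DMSO controls is given: cell Painting imaging in 384-well plates, CellProfiler features reduced to at least 20 principal components, Euclidean distance versus same-plate DMSO vehicle wells (0.1% v/v), median over six images per well.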
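Wherever surviving fraction (nuclei count normalised to DMSO) is given: nuclei counted by high-content imaging of Hoechst-stained cells in laminin-coated 384-well plates, relative to 0.1% DMSO vehicle wells, with staurosporine as cell-death control.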

CC1(C)S[C@@H]2[C@H](NC(=O)Cc3ccccc3)C(=O)N2[C@H]1C(=O)O [Benzylpenicillin sodium]
Settings	phenotypic distance	surviving fraction
E13 [1], 4.1 nM	–	1.1
E13 [1], 12.3 nM	–	1.14
E13 [1], 37 nM	–	1.07
E13 [1], 111.1 nM	–	1.17
E13 [1], 333.3 nM	–	1.06
E13 [1], 1000 nM	–	1.06
E13 [1], 3000 nM	–	1.08
E13 [8], 4.1 nM	0.664	–
E13 [8], 12.3 nM	1.03	–
E13 [8], 37 nM	0.438	–
E13 [8], 111.1 nM	0.926	–
E13 [8], 333.3 nM	0.678	–
E13 [8], 1000 nM	1.04	–
E13 [8], 3000 nM	0.985	–
E21 [2], 4.1 nM	–	1.06
E21 [2], 12.3 nM	–	1.11
E21 [2], 37 nM	–	1.03
E21 [2], 111.1 nM	–	1.04
E21 [2], 333.3 nM	–	0.968
E21 [2], 1000 nM	–	1.14
E21 [2], 3000 nM	–	0.993
E21 [9], 4.1 nM	0.889	–
E21 [9], 12.3 nM	0.821	–
E21 [9], 37 nM	0.791	–
E21 [9], 111.1 nM	0.688	–
E21 [9], 333.3 nM	4.43	–
E21 [9], 1000 nM	1.31	–
E21 [9], 3000 nM	0.858	–
E28 [3], 4.1 nM	–	1.28
E28 [3], 12.3 nM	–	1.09
E28 [3], 37 nM	–	1.38
E28 [3], 111.1 nM	–	0.946
E28 [3], 333.3 nM	–	1.14
E28 [3], 1000 nM	–	1.12
E28 [3], 3000 nM	–	0.901
E28 [10], 4.1 nM	0.78	–
E28 [10], 12.3 nM	0.57	–
E28 [10], 37 nM	0.958	–
E28 [10], 111.1 nM	0.61	–
E28 [10], 333.3 nM	0.635	–
E28 [10], 1000 nM	0.605	–
E28 [10], 3000 nM	1.19	–
E31 [4], 4.1 nM	–	1.03
E31 [4], 12.3 nM	–	0.949
E31 [4], 37 nM	–	1.1
E31 [4], 111.1 nM	–	1.03
E31 [4], 333.3 nM	–	1.1
E31 [4], 1000 nM	–	0.947
E31 [4], 3000 nM	–	0.879
E31 [11], 4.1 nM	0.966	–
E31 [11], 12.3 nM	0.585	–
E31 [11], 37 nM	0.478	–
E31 [11], 111.1 nM	0.839	–
E31 [11], 333.3 nM	1.16	–
E31 [11], 1000 nM	0.685	–
E31 [11], 3000 nM	1.21	–
E34 [5], 4.1 nM	–	1.11
E34 [5], 12.3 nM	–	0.981
E34 [5], 37 nM	–	1.02
E34 [5], 111.1 nM	–	1.02
E34 [5], 333.3 nM	–	0.906
E34 [5], 1000 nM	–	0.865
E34 [5], 3000 nM	–	0.864
E34 [12], 4.1 nM	0.752	–
E34 [12], 12.3 nM	0.424	–
E34 [12], 37 nM	0.561	–
E34 [12], 111.1 nM	0.473	–
E34 [12], 333.3 nM	0.826	–
E34 [12], 1000 nM	0.717	–
E34 [12], 3000 nM	1.48	–
E57 [6], 4.1 nM	–	1.03
E57 [6], 12.3 nM	–	0.993
E57 [6], 37 nM	–	1
E57 [6], 111.1 nM	–	1.01
E57 [6], 333.3 nM	–	1.04
E57 [6], 1000 nM	–	0.87
E57 [6], 3000 nM	–	0.922
E57 [13], 4.1 nM	0.898	–
E57 [13], 12.3 nM	0.449	–
E57 [13], 37 nM	0.995	–
E57 [13], 111.1 nM	0.845	–
E57 [13], 333.3 nM	1.07	–
E57 [13], 1000 nM	0.999	–
E57 [13], 3000 nM	1.39	–
FT3469 [7], 4.1 nM	–	1.05
FT3469 [7], 12.3 nM	–	1.29
FT3469 [7], 37 nM	–	1.05
FT3469 [7], 111.1 nM	–	1.18
FT3469 [7], 333.3 nM	–	0.99
FT3469 [7], 1000 nM	–	1.27
FT3469 [7], 3000 nM	–	1.12
FT3469 [14], 4.1 nM	0.569	–
FT3469 [14], 12.3 nM	0.961	–
FT3469 [14], 37 nM	1.12	–
FT3469 [14], 111.1 nM	0.565	–
FT3469 [14], 333.3 nM	0.741	–
FT3469 [14], 1000 nM	0.951	–
FT3469 [14], 3000 nM	1.77	–

CC[C@@]1(O)C(=O)OCc2c1cc1n(c2=O)Cc2cc3cc(O)ccc3nc2-1 [Hydroxy Camptothecine]
Settings	phenotypic distance	surviving fraction
E13 [1], 4.1 nM	–	0.295
E13 [1], 12.3 nM	–	0.298
E13 [1], 37 nM	–	0.269
E13 [1], 111.1 nM	–	0.241
E13 [1], 333.3 nM	–	0.178
E13 [1], 1000 nM	–	0.197
E13 [1], 3000 nM	–	0.141
E13 [8], 4.1 nM	5.76	–
E13 [8], 12.3 nM	6.4	–
E13 [8], 37 nM	5.69	–
E13 [8], 111.1 nM	6.9	–
E13 [8], 333.3 nM	6.25	–
E13 [8], 1000 nM	6.56	–
E13 [8], 3000 nM	6.55	–
E21 [2], 4.1 nM	–	0.133
E21 [2], 12.3 nM	–	0.115
E21 [2], 37 nM	–	0.12
E21 [2], 111.1 nM	–	0.161
E21 [2], 333.3 nM	–	0.135
E21 [2], 1000 nM	–	0.106
E21 [2], 3000 nM	–	0.119
E21 [9], 4.1 nM	4.52	–
E21 [9], 12.3 nM	4.56	–
E21 [9], 37 nM	5.14	–
E21 [9], 111.1 nM	4.89	–
E21 [9], 333.3 nM	4.81	–
E21 [9], 1000 nM	5.63	–
E21 [9], 3000 nM	5.74	–
E28 [3], 4.1 nM	–	0.341
E28 [3], 12.3 nM	–	0.331
E28 [3], 37 nM	–	0.313
E28 [3], 111.1 nM	–	0.331
E28 [3], 333.3 nM	–	0.268
E28 [3], 1000 nM	–	0.219
E28 [3], 3000 nM	–	0.151
E28 [10], 4.1 nM	3	–
E28 [10], 12.3 nM	2.79	–
E28 [10], 37 nM	3.94	–
E28 [10], 111.1 nM	2.28	–
E28 [10], 333.3 nM	3.33	–
E28 [10], 1000 nM	3.32	–
E28 [10], 3000 nM	3.06	–
E31 [4], 4.1 nM	–	0.159
E31 [4], 12.3 nM	–	0.166
E31 [4], 37 nM	–	0.174
E31 [4], 111.1 nM	–	0.231
E31 [4], 333.3 nM	–	0.223
E31 [4], 1000 nM	–	0.203
E31 [4], 3000 nM	–	0.201
E31 [11], 4.1 nM	3.54	–
E31 [11], 12.3 nM	2.94	–
E31 [11], 37 nM	3.69	–
E31 [11], 111.1 nM	2.96	–
E31 [11], 333.3 nM	3.02	–
E31 [11], 1000 nM	4.3	–
E31 [11], 3000 nM	4.23	–
E34 [5], 4.1 nM	–	0.494
E34 [5], 12.3 nM	–	0.492
E34 [5], 37 nM	–	0.608
E34 [5], 111.1 nM	–	0.446
E34 [5], 333.3 nM	–	0.509
E34 [5], 1000 nM	–	0.496
E34 [5], 3000 nM	–	0.569
E34 [12], 4.1 nM	3.37	–
E34 [12], 12.3 nM	3.46	–
E34 [12], 37 nM	1.84	–
E34 [12], 111.1 nM	2.93	–
E34 [12], 333.3 nM	2.95	–
E34 [12], 1000 nM	3.66	–
E34 [12], 3000 nM	3.13	–
E57 [6], 4.1 nM	–	0.14
E57 [6], 12.3 nM	–	0.165
E57 [6], 37 nM	–	0.148
E57 [6], 111.1 nM	–	0.157
E57 [6], 333.3 nM	–	0.144
E57 [6], 1000 nM	–	0.136
E57 [6], 3000 nM	–	0.13
E57 [13], 4.1 nM	6.51	–
E57 [13], 12.3 nM	6.72	–
E57 [13], 37 nM	6.63	–
E57 [13], 111.1 nM	5.99	–
E57 [13], 333.3 nM	6.28	–
E57 [13], 1000 nM	6.33	–
E57 [13], 3000 nM	5.89	–
FT3469 [7], 4.1 nM	–	0.616
FT3469 [7], 12.3 nM	–	0.73
FT3469 [7], 37 nM	–	0.51
FT3469 [7], 111.1 nM	–	0.563
FT3469 [7], 333.3 nM	–	0.489
FT3469 [7], 1000 nM	–	0.442
FT3469 [7], 3000 nM	–	0.445
FT3469 [14], 4.1 nM	1.58	–
FT3469 [14], 12.3 nM	1.79	–
FT3469 [14], 37 nM	2.15	–
FT3469 [14], 111.1 nM	1.67	–
FT3469 [14], 333.3 nM	2.41	–
FT3469 [14], 1000 nM	3.08	–
FT3469 [14], 3000 nM	3.19	–
